This note sets out measurements from patent publication US20120184728A1, “Compound Amycolose Derivative, Method for Producing the Same, and Use of the Same” (priority 2009, published 2012).

Structures are written as SMILES. Entries after “also recorded” stand apart in the source; their conditions may differ.

This assay relates to Human prostate stromal cells PrSC. Briefly: Cell growth suppressive activity (MTT, Test Example 1). It is filed as cell-based. The following applies: 0.024 to 100 μg/mL, 3 days culture, MTT absorbance at 570 nm, result in words. Here is the method: Human prostate stromal cells PrSC (product of Bio Whittaker) were added to DMEM (product of NISSUI PHARMACEUTICAL CO., LTD.) containing 10% by mass FBS (fetal bovine serum) (product of ICN Biomedicals) to prepare a cell suspension having a concentration of 5×10^4 cells/mL. The cell suspension was placed in a 96-well plate in an amount of 0.1 mL per well. Each of the amycolose derivatives (compounds 1, 2 and 3) was added to the wells at a final concentration of 0.024 μg/mL, 0.098 μg/mL, 0.391 μg/mL, 1.563 μg/mL, 6.25 μg/mL, 25 μg/mL or 100 μg/mL, followed by culturing in an incubator for 3 days at 37° C. and 5% CO2. Then, MTT (3-[4,5-dimethylthiazol-2-yl]-2,5-diphenyltetrazolium bromide) (product of Sigma Co.), which had been adjusted with a phosphate buffer to have a concentration of 5 mg/mL, was added to each well in an amount of 10 μL, followed by culturing in an incubator for 4 hours at 37° C. and 5% CO2. Subsequently, 10 μL of 20% by mass SDS (sodium dodecylsulphate) prepared with 10 mM hydrochloric acid was added to each well, and the plate was left to stand still overnight at 37° C. to dissolve formazan formed from MTT. Thereafter, the plate was measured for absorbance at 570 nm with an absorptiometer (hereinafter may be referred to as “amycolose derivative-added sample's absorbance”). Regarding as 100% the absorbance measured when no amycolose derivative was added (hereinafter may be referred to as “control absorbance”), the cell growth rate in each of the amycolose derivatives (compounds 1, 2 and 3) at the above concentrations was calculated using the following equation (1).
Cell growth rate (%)=amycolose derivative-added sample's absorbance/control absorbance×100 Equation (1)
With `CO[C@@H]1C[C@@](O)([C@H](C)NC(=O)c2[nH]c(C)c(Cl)c2Cl)[C@H](O)[C@@H](C)O1` [compound 3], the “cell growth suppressive activity (cell growth rate, FIG. 5)” value (“cell growth suppressive activity” below) is given as “exhibit cell growth suppressive activity”. `Cc1[nH]c(C(=O)N[C@@H](C)[C@]2(O)CC(O)O[C@H](C)[C@H]2O)c(Cl)c1Cl` (stereo partly drawn) [compound 1]: the “cell growth suppressive activity” value is “exhibit cell growth suppressive activity; also recorded: remarkable cell growth suppressive activity”. Take `CO[C@H]1C[C@@](O)([C@H](C)NC(=O)c2[nH]c(C)c(Cl)c2Cl)[C@H](O)[C@@H](C)O1` [compound 2]: the “cell growth suppressive activity” value was “exhibit cell growth suppressive activity”.
